# Data: patent US12617779B2, “Self degradation-type CDK9 inhibitor prodrug and liposome encapsulating same” (Sumitomo Pharma Co., Ltd., priority 2021, dated 2026)
# System: EMT6 cells
# Test: Drug efficacy evaluation test using tumor-bearing mice transplanted with EMT6 cells (Experimental Example 7)
# Type: in vivo, BALB/c mice
# Conditions: liposome formulation, tail vein, 25 mg/kg and 50 mg/kg twice a week
# Description: The liposome formulation encapsulating the compound of the present disclosure was treated and evaluated for anti-tumor effect.
# The liposome formulations were prepared as follows. The liposomes encapsulating the compounds of Example 3 and Example 4 were prepared in the same manner as in Experimental Example 4, respectively. The liposome outer solution was replaced with 10 mM tartrate buffer solution/10% sucrose solution (pH 4) using Sephadex G-25 column (PD-10, manufactured by GE Healthcare), followed by concentration by an ultrafiltration filter (AmiconUltra, 100K, 15 mL, manufactured by Merck), and filtration through a 0.22 μm membrane filter.
# EMT6 cells (ATCC) were intradermally transplanted into 5-week-old BALB/c mice (BALB/cAnNCrlCrlj, female, Charles River, Japan) around the ventral region at 5×10^5 cells/mouse. […] The tumor volume was measured over time from the start of administration, and the tumor volume reduction effect due to compound administration was evaluated. The tumor volume was calculated by the following formula using the short and long diameters of the tumor measured with an electronic caliper (Mitutoyo). […]
# The anti-tumor effect was evaluated by comparing the control group administered with the empty liposome solution and the administration group of the compound of the present disclosure, and calculating T/C by the following formula.
smiles,measurement,value
"CN1CC[C@H](c2c(OC(=O)N(C)C[C@H]3CCCCN3)cc(O)c3c(=O)cc(-c4ccccc4Cl)oc23)[C@H](O)C1 [Example 4, 2-(2-chlorophenyl)-5-hydroxy-8-[(3S,4R)-3-hydroxy-1-methylpiperidin-4-yl]-4-oxo-4H-1-benzopyran-7-yl methyl{[(2R)-piperidin-2-yl]methyl}carbamate]",Effect on tumor volume,significantly inhibited the increase in tumor volume
